Test results: PMC7954579 (Cancer chemotherapy and pharmacology, 2020)
Where “and” joins values, the source holds several entries; their conditions need not be identical. Identical values can stand only once.

Assays:
[1] = Plasma pharmacokinetics in patients; type: in vivo, human; conditions: for half-life: t1/2,z
[2] = test system: colorectal cancer cell line; assay: In vitro combination study in a colorectal cancer cell line; type: cell-based; conditions: Supplementary Fig. 1A
[3] = IV, days 1, 4, 8, 11 of 21-day cycle, with onalespib 80 mg/m^2 (DL2)
[4] = test system: CDKs 1,2,4,5, and 9; conditions: read-out: IC50 range; cited from earlier work
[5] = twice-weekly schedule, monotherapy; cited from earlier work
[6] = All dose levels, C1D1, AT7519 after onalespib, n = 23, geometric mean
[7] = All dose levels, C1D11, AT7519 after onalespib, n = 15, geometric mean
[8] = DL1, C1D1, AT7519 21 mg/m^2 IV after onalespib 40 mg/m^2, n = 4, geometric mean
[9] = DL1, C1D11, AT7519 21 mg/m^2 IV after onalespib 40 mg/m^2, n = 2, geometric mean
[10] = DL2, C1D1, AT7519 21 mg/m^2 IV after onalespib 80 mg/m^2, n = 15, geometric mean
[11] = DL2, C1D11, AT7519 21 mg/m^2 IV after onalespib 80 mg/m^2, n = 11, geometric mean
[12] = DL3, C1D1, AT7519 27 mg/m^2 IV after onalespib 80 mg/m^2, n = 4, geometric mean
[13] = DL3, C1D11, AT7519 27 mg/m^2 IV after onalespib 80 mg/m^2, n = 2, geometric mean
[14] = human, plasma, iv, DL1, C1D1, AT7519 21 mg/m^2 IV after onalespib 40 mg/m^2, n = 4, geometric mean
[15] = human, plasma, iv, DL1, C1D11, AT7519 21 mg/m^2 IV after onalespib 40 mg/m^2, n = 2, geometric mean
[16] = human, plasma, iv, DL2, C1D1, AT7519 21 mg/m^2 IV after onalespib 80 mg/m^2, n = 15, geometric mean
[17] = human, plasma, iv, DL2, C1D11, AT7519 21 mg/m^2 IV after onalespib 80 mg/m^2, n = 11, geometric mean
[18] = human, plasma, iv, DL3, C1D1, AT7519 27 mg/m^2 IV after onalespib 80 mg/m^2, n = 4, geometric mean
[19] = human, plasma, iv, DL3, C1D11, AT7519 27 mg/m^2 IV after onalespib 80 mg/m^2, n = 2, geometric mean

O=C(NC1CCNCC1)c1n[nH]cc1NC(=O)c1c(Cl)cccc1Cl [AT7519, N-(4-piperidinyl)-4-(2,6-dichlorobenzoylamino)-1H-pyrazole-3-car-boxamide]
CL [1, 6]: 9.97 L/h/m^2
Vz [1, 6]: 144.3 L/m^2
CL [1, 7]: 8.93 L/h/m^2
Vz [1, 7]: 135.9 L/m^2
CL [1, 8]: 13.6 L/h/m^2
Vz [1, 8]: 146.6 L/m^2
CL [1, 9]: 9.98 L/h/m^2
Vz [1, 9]: 155.9 L/m^2
CL [1, 10]: 9.1 L/h/m^2 and 9.13 L/h/m^2
Cmax [1, 10]: 0.4593 µg/mL
Vz [1, 10]: 146.3 L/m^2
CL [1, 11]: 8.6 L/h/m^2 and 8.58 L/h/m^2
Cmax [1, 11]: 0.5087 µg/mL
Vz [1, 11]: 132.6 L/m^2
CL [1, 12]: 10.1 L/h/m^2
Vz [1, 12]: 134.7 L/m^2
CL [1, 13]: 10.0 L/h/m^2
Vz [1, 13]: 135.5 L/m^2
AUC [1, 14]: 1.54 µg·h/mL
AUC [1, 15]: 2.1 µg·h/mL
AUC [1, 16]: 2.3 µg·h/mL
AUC [1, 17]: 2.45 µg·h/mL
AUC [1, 18]: 2.66 µg·h/mL
AUC [1, 19]: 2.69 µg·h/mL
Cmax ([1]; human, plasma, iv, Cmax, DL1, C1D1, AT7519 21 mg/m^2 IV after onalespib 40 mg/m^2, n = 4, geometric mean): 0.463 µg/mL
Cmax ([1]; human, plasma, iv, Cmax, DL1, C1D11, AT7519 21 mg/m^2 IV after onalespib 40 mg/m^2, n = 2, geometric mean): 0.486 µg/mL
Cmax ([1]; human, plasma, iv, Cmax, DL2, C1D1, AT7519 21 mg/m^2 IV after onalespib 80 mg/m^2, n = 15, geometric mean): 0.459 µg/mL
Cmax ([1]; human, plasma, iv, Cmax, DL2, C1D11, AT7519 21 mg/m^2 IV after onalespib 80 mg/m^2, n = 11, geometric mean): 0.509 µg/mL
Cmax ([1]; human, plasma, iv, Cmax, DL3, C1D1, AT7519 27 mg/m^2 IV after onalespib 80 mg/m^2, n = 4, geometric mean): 0.602 µg/mL
Cmax ([1]; human, plasma, iv, Cmax, DL3, C1D11, AT7519 27 mg/m^2 IV after onalespib 80 mg/m^2, n = 2, geometric mean): 0.581 µg/mL
half-life [1, 14]: 7.48 h
half-life [1, 15]: 10.8 h
half-life [1, 16]: 11.1 h
half-life [1, 17]: 10.7 h
half-life [1, 18]: 9.21 h
half-life [1, 19]: 9.38 h
Effect on onalespib-induced HSP70 upregulation [2]: dose-dependent inhibition of onalespib-induced HSP70 upregulation
Maximally tolerated dose (MTD) of AT7519 in the combination [3]: 21 mg/m^2
IC50 [4]: 0.011 to 0.22 µM
RP2D as individual agent [5]: 27 mg/m^2
